What was measured:
[1] = tested on: MDA-MB-231; test: Antiproliferative activity against human MDA-MB-231 cells after 72 hrs by Alamar blue/spectrophotometric analysis; format: functional, cell-based; settings: MDA-MB-231, 72 h
[2] = Antiproliferative activity against human SHEP cells after 72 hrs by Alamar blue/spectrophotometric analysis; format: functional, cell-based
[3] = tested on: RAW264.7; test: Antiinflammatory activity against mouse RAW264.7 cells assessed as reduction of LPS-induced IL6 production at 10 uM after 24 hrs by ELISA; format: functional; settings: RAW264.7, 24 h

SMILES | IC50 [1] | IC50 [2] | inhibition at 10 µM [3]
CC(=O)CC1Oc2cc(O)ccc2C=C1c1ccc(O)cc1 (centres undefined) | 145 µM | 124 µM | > 50%
CC(C)CC(=O)CC1Oc2cc(O)ccc2C=C1c1ccc(O)cc1 (centres undefined) | 67 µM | 139 µM | –
O=C(CC1Oc2cc(O)ccc2C=C1c1ccc(O)cc1)c1ccccc1 (centres undefined) | 88 µM | 102 µM | –
CCc1ccc(C(=O)CC2Oc3cc(O)ccc3C=C2c2ccc(O)cc2)cc1 (centres undefined) | 198 µM | 377 µM | –
O=C(CC1Oc2cc(O)ccc2C=C1c1ccc(O)cc1)c1ccc(Cl)cc1 (centres undefined) | 151 µM | 167 µM | –
O=C(CC1Oc2cc(O)ccc2C=C1c1ccc(O)cc1)c1cccc2ccccc12 (centres undefined) | 106 µM | 128 µM | –

These reach a lower IC50 [1]. Values come first.

IC50 [1] | SMILES | IC50 [2] | inhibition at 10 µM [3]
55 µM | Cc1ccc(C(=O)CC2Oc3cc(O)ccc3C=C2c2ccc(O)cc2)cc1 (centres undefined) | 60 µM | –
53 µM | Cc1cc(C2Oc3cc(O)ccc3C=C2c2ccc(O)cc2)cc(C)c1N (centres undefined) | 102 µM | > 50%
39 µM | COc1ccc(C2=C(c3ccc(O)cc3)C(CC(C)=O)Oc3cc(O)ccc32)cc1 (centres undefined) | 69 µM | –
37 µM | O=C(CC1Oc2cc(O)ccc2C=C1c1ccc(O)cc1)c1ccc(Br)cc1 (centres undefined) | 33 µM | –
36 µM | C/C(CC1Oc2cc(O)ccc2C=C1c1ccc(O)cc1)=N\Nc1ccc([N+](=O)[O-])cc1[N+](=O)[O-] (centres undefined) | 62 µM | –
33 µM | Oc1ccc(C2=Cc3ccc(O)cc3OC2)cc1 [IDRONOXIL] | 9.9 µM | –
7.6 µM | COc1ccc(C(=O)CC2Oc3cc(O)ccc3C=C2c2ccc(O)cc2)cc1 (centres undefined) | 37 µM | > 50%

— ChEMBL document CHEMBL3352223, “Synthesis, anti-cancer and anti-inflammatory activity of novel 2-substituted isoflavenes” (Bioorg Med Chem, 2014)
